# PubChem BioAssay (NCI)
#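 Each compound was tested at five concentrations against cells in 96-well plates for 48 hours. GI50: concentration for 50% inhibition of growth. TGI marks complete inhibition of growth.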
# Assays:
# Test in all cases: NCI anticancer screen, dose series, 48 h
# [1] = test system: MCF7 breast
# [2] = test system: PC-3 prostate
# [3] = test system: M14 melanoma
# [4] = test system: NCI/ADR-RES ovarian
# [5] = test system: OVCAR-4 ovarian
# [6] = test system: RPMI-8226 leukemia
# [7] = test system: EKVX NSCLC
# [8] = test system: BT-549 breast
# [9] = test system: OVCAR-5 ovarian
# [10] = test system: U251 CNS
# [11] = test system: NCI-H23 lung
# [12] = test system: HCT-116 colon
# [13] = test system: UACC-257 melanoma
# [14] = test system: SF-295 CNS
# [15] = test system: ACHN renal
# [16] = test system: 786-0 renal
# [17] = test system: HOP-92 NSCLC
# [18] = test system: MOLT-4 leukemia
# [19] = test system: T-47D breast
# [20] = test system: SK-MEL-2 melanoma
# [21] = test system: OVCAR-8 ovarian
# [22] = test system: SK-MEL-5 melanoma
# [23] = test system: LOX IMVI melanoma
# [24] = test system: CCRF-CEM leukemia
# [25] = test system: MALME-3M melanoma
# [26] = test system: HCT-15 colon
# [27] = test system: SNB-19 CNS
# [28] = test system: HS 578T breast
# [29] = test system: OVCAR-3 ovarian
# [30] = test system: SN12C renal
# [31] = test system: SF-268 CNS
# [32] = test system: HCC-2998 colon
# [33] = test system: RXF 393 renal
# [34] = test system: SW-620 colon
# [35] = test system: KM12 colon
# [36] = test system: HOP-62 NSCLC
# [37] = test system: TK-10 renal
# [38] = test system: SK-MEL-28 melanoma
# [39] = test system: SF-539 CNS
# [40] = test system: NCI-H226 lung
# [41] = test system: IGROV1 ovarian
# [42] = test system: HT29 colon
# [43] = test system: COLO 205 colon
# [44] = test system: DU-145 prostate
# [45] = test system: A549 NSCLC
# [46] = test system: K-562 leukemia
# [47] = test system: CAKI-1 renal
# [48] = test system: SR leukemia
# [49] = test system: SNB-75 CNS
# [50] = test system: UO-31 renal
# [51] = test system: NCI-H460 lung
# [52] = test system: A498 renal
# [53] = test system: NCI-H522 lung
structure (smiles),measurement,setting,value
C=CN(C(=O)N1CCN(c2cc3c(cc2F)c(=O)c(C(=O)O)cn3C2CC2)CC1)c1nc(-c2ccc(OC)cc2)cs1,GI50,[1],3.36 µM
same,TGI,[1],> 100 µM
same,GI50,[2],3.65 µM
same,TGI,[2],> 100 µM
same,GI50,[3],3.61 µM
same,TGI,[3],> 100 µM
same,GI50,[4],3.07 µM
same,TGI,[4],9.07 µM
same,GI50,[5],3.96 µM
same,TGI,[5],> 100 µM
same,GI50,[6],2.75 µM
same,TGI,[6],> 100 µM
same,GI50,[7],4.12 µM
same,TGI,[7],> 100 µM
same,GI50,[8],2.39 µM
same,TGI,[8],7.52 µM
same,GI50,[9],5.13 µM
same,TGI,[9],> 100 µM
same,GI50,[10],4.04 µM
same,TGI,[10],13.4 µM
same,GI50,[11],3.48 µM
same,TGI,[11],14.9 µM
same,GI50,[12],3.42 µM
same,TGI,[12],> 100 µM
same,GI50,[13],2.97 µM
same,TGI,[13],7.18 µM
same,GI50,[14],2.83 µM
same,TGI,[14],8.26 µM
same,GI50,[15],3.77 µM
same,TGI,[15],> 100 µM
same,GI50,[16],3.37 µM
same,TGI,[16],23.1 µM
same,GI50,[17],2.45 µM
same,TGI,[17],5.57 µM
same,GI50,[18],3.36 µM
same,TGI,[18],> 100 µM
same,GI50,[19],3.12 µM
same,TGI,[19],> 100 µM
same,GI50,[20],2.59 µM
same,TGI,[20],5.21 µM
same,GI50,[21],3.3 µM
same,TGI,[21],15.5 µM
same,GI50,[22],2.11 µM
same,TGI,[22],4.78 µM
same,GI50,[23],2.45 µM
same,TGI,[23],> 100 µM
same,GI50,[24],3.45 µM
same,TGI,[24],> 100 µM
same,GI50,[25],4.11 µM
same,TGI,[25],> 100 µM
same,GI50,[26],2.86 µM
same,TGI,[26],> 100 µM
same,GI50,[27],4.7 µM
same,TGI,[27],46 µM
same,GI50,[28],3.22 µM
same,TGI,[28],14.5 µM
same,GI50,[29],3.29 µM
same,TGI,[29],> 100 µM
same,GI50,[30],3.14 µM
same,TGI,[30],> 100 µM
same,GI50,[31],4.14 µM
same,TGI,[31],> 100 µM
same,GI50,[32],5.12 µM
same,TGI,[32],> 100 µM
same,GI50,[33],5.2 µM
same,TGI,[33],45.1 µM
same,GI50,[34],4.04 µM
same,TGI,[34],> 100 µM
same,GI50,[35],3.12 µM
same,TGI,[35],> 100 µM
same,GI50,[36],3.37 µM
same,TGI,[36],65.4 µM
same,GI50,[37],5.23 µM
same,TGI,[37],23.7 µM
same,GI50,[38],4.26 µM
same,TGI,[38],> 100 µM
same,GI50,[39],2.8 µM
same,TGI,[39],7.78 µM
same,GI50,[40],2.9 µM
same,TGI,[40],> 100 µM
same,GI50,[41],3.89 µM
same,TGI,[41],> 100 µM
same,GI50,[42],3.42 µM
same,TGI,[42],> 100 µM
same,GI50,[43],2.54 µM
same,TGI,[43],6.59 µM
same,GI50,[44],3.93 µM
same,TGI,[44],> 100 µM
same,GI50,[45],3.39 µM
same,TGI,[45],> 100 µM
same,GI50,[46],3.14 µM
same,TGI,[46],> 100 µM
same,GI50,[47],2.84 µM
same,TGI,[47],18.3 µM
same,GI50,[48],2.69 µM
same,TGI,[48],> 100 µM
same,GI50,[49],2.51 µM
same,TGI,[49],6.7 µM
same,GI50,[50],2.1 µM
same,TGI,[50],> 100 µM
same,GI50,[51],3.54 µM
same,TGI,[51],> 100 µM
same,GI50,[52],2.93 µM
same,TGI,[52],> 100 µM
same,GI50,[53],2.67 µM
same,TGI,[53],6.95 µM
